The values below come from PubChem BioAssay (NCI).

Among the test systems are MDA-N; BT-549 breast; XF 498 CNS; DMS 273 small cell lung; HOP-18 NSCLC; DMS 114 small cell lung; DLD-1 colon; RXF-631 renal; SNB-78 CNS.
Common to all, as to assay: NCI-60 cell line screen, 48 h

Several values for one entry are separate records, joined by “and”; a condition that tells them apart may be missing. Equal entries are not always repeated.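 1) Cells in 96-well plates. 2) Compound, 48 h, 5 concentrations. 3) Linear interpolation between surrounding doses. 4) Unreached endpoint = highest concentration. At the GI50, growth is halved. At the TGI there is no net growth.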

For the compound `N=c1ccn2c(n1)OC1C(OP(=O)(O)O)C(CO)OC12` (configuration not stated), the TGI in the assay with MDA-N and with BT-549 breast was over 100 µM each time.

For the compound `NC1=NC(=O)N2CC12` (configuration not stated), the TGI in the assay with XF 498 CNS was over 100 µM; in the assay with DMS 273 small cell lung it was over 100 µM; in the assay on BT-549 breast it was 166 µM; in the assay on HOP-18 NSCLC it was over 100 µM; in the assay with DMS 114 small cell lung, over 100 µM; with DLD-1 colon it was over 100 µM. Besides, the GI50 in the assay with BT-549 breast was 47.9 µM and 62.6 µM.

For `CCC[CH2][Sn]1([CH2]CCC)[O]C(c2ccccn2)S(=O)(=O)[O]1` (configuration not stated), the GI50 in the assay with XF 498 CNS was 2.08 µM; with DMS 273 small cell lung, 3.29 µM; in the assay on RXF-631 renal, 1.3 µM; with SNB-78 CNS, 1.6 µM; in the assay on DLD-1 colon it was 3.31 µM. For the same compound, the TGI in the assay with XF 498 CNS was determined as 3.55 µM; with DMS 273 small cell lung, 15.5 µM; with RXF-631 renal, 2.64 µM; with SNB-78 CNS, 5.86 µM; in the assay on DLD-1 colon, 12.7 µM.

As to `CCOC(=O)C12CCCC1(O)N(NC(=O)c1cccc(Cl)c1)C(C)=C2C(=O)OC` (configuration not stated), the TGI in the assay with XF 498 CNS, in the assay with DMS 273 small cell lung, in the assay with DMS 114 small cell lung, in the assay with RXF-631 renal and in the assay on DLD-1 colon was over 100 µM in each case.

With `CSc1ccc(-c2cn3ccsc3n2)c(O)c1`, the TGI in the assay on XF 498 CNS was over 100 µM; in the assay with DMS 273 small cell lung, over 100 µM; with HOP-18 NSCLC, over 100 µM; in the assay with DMS 114 small cell lung, over 60.9 µM; in the assay on RXF-631 renal, over 100 µM; in the assay with SNB-78 CNS it was over 100 µM. In addition, the TGI in the assay with DLD-1 colon was over 100 µM.

On to `O=C(O)/C(Cl)=C(\Cl)Nc1cccc(C(F)(F)F)c1`, for which the TGI with XF 498 CNS, in the assay on DMS 273 small cell lung, in the assay on HOP-18 NSCLC, in the assay with DMS 114 small cell lung, with SNB-78 CNS and with DLD-1 colon was over 100 µM in each case.

As for `COC(=O)C1=CC(O)CCC1c1ccc(OC)cc1` (configuration not stated), the TGI in the assay with DMS 273 small cell lung, in the assay with HOP-18 NSCLC, with DMS 114 small cell lung, in the assay on SNB-78 CNS and in the assay with DLD-1 colon was over 100 µM each time.

For `CC[O-].CC[O-].[O-]c1ccccc1C=Nc1ccccc1.[O-]c1ccccc1C=Nc1ccccc1.[Ti+4]`, the GI50 is over 100 µM with XF 498 CNS; 21 µM with DMS 273 small cell lung; over 100 µM with HOP-18 NSCLC; 75.2 µM in the assay on DMS 114 small cell lung; over 100 µM with RXF-631 renal; over 100 µM in the assay on SNB-78 CNS. Further, the GI50 with DLD-1 colon was over 100 µM. Moreover, the TGI in the assay with XF 498 CNS, with DMS 273 small cell lung, in the assay with HOP-18 NSCLC, with DMS 114 small cell lung, in the assay on RXF-631 renal and in the assay on SNB-78 CNS was over 100 µM each time. Moreover, in the assay with DLD-1 colon, the TGI was over 100 µM.

Turning to `COC1=CC(=O)c2ccc(C(C)C)cc2C1(C)C1=NC(C)(C)CO1` (configuration not stated), the TGI in the assay with XF 498 CNS, with DMS 273 small cell lung, with HOP-18 NSCLC, in the assay with DMS 114 small cell lung and with DLD-1 colon was over 100 µM each time.

As for `CN1CCC23c4c5ccc(O)c4OC2C(=NN=C2CCC4(O)C6Cc7ccc(O)c8c7C4(CCN6C)C2O8)CCC3(O)C1C5` (configuration not stated), the TGI in the assay on XF 498 CNS, with DMS 273 small cell lung, in the assay on HOP-18 NSCLC, with DMS 114 small cell lung, in the assay on RXF-631 renal and with DLD-1 colon was over 100 µM in each case.

`C[C@]12CCC[C@H](OC=O)C1(O)C[C@H](C(=O)O)CC2` (some centres not stated): the TGI in the assay with XF 498 CNS, in the assay on DMS 273 small cell lung, with HOP-18 NSCLC, in the assay with DMS 114 small cell lung, with RXF-631 renal and with SNB-78 CNS was over 100 µM each time. Moreover, the TGI in the assay on DLD-1 colon is over 100 µM.

For `CN(C)CC/C=C1\c2ccccc2Sc2ccc(Cl)cc21`, the TGI in the assay with MDA-N was found to be 26.1 µM. Besides, in the assay on BT-549 breast, the GI50 was 4.91 µM; the TGI is 17.4 µM and 29.2 µM.

For the compound `C/C(=N\O)c1sc(-n2nc(-c3ccccc3)cc2-c2ccccc2)nc1C`, the TGI in the assay with DMS 273 small cell lung is 49.6 µM; with DMS 114 small cell lung it was 22.8 µM; with RXF-631 renal, over 31.6 µM; with SNB-78 CNS it was over 100 µM; in the assay with DLD-1 colon, 20.1 µM.

Take `O=c1[nH]cnc2c(C3OC(CO)C(O)C3O)[nH]nc12` (configuration not stated): the TGI in the assay on MDA-N and in the assay on BT-549 breast was over 100 µM each time.

For the compound `c1cncc(C2c3[nH]c4ccccc4c3CCN2CCCN2CCCCC2)c1` (configuration not stated), the TGI in the assay with XF 498 CNS, with DMS 273 small cell lung, in the assay on DMS 114 small cell lung, in the assay on SNB-78 CNS and in the assay on DLD-1 colon was over 100 µM in each case.

As to `COc1ccc2cc(C(=O)c3ccccc3C(=O)O)ccc2c1`, the TGI in the assay on DMS 273 small cell lung, in the assay on HOP-18 NSCLC, with DMS 114 small cell lung and in the assay with DLD-1 colon was over 100 µM in each case.

On to `CCc1ccccc1NC(=O)/C(CC(=O)c1c(C)n([O-])c2ccccc2[n+]1=O)=N\NS(=O)(=O)c1ccc(C)cc1`, for which the TGI with DMS 273 small cell lung was over 100 µM; with DMS 114 small cell lung, 30.3 µM; in the assay with RXF-631 renal, over 100 µM; in the assay on SNB-78 CNS, over 100 µM; in the assay with DLD-1 colon, over 100 µM.

For `COc1ccccc1/C=C/C(=O)c1sc(-c2cccnc2)nc1C`, the TGI with DMS 273 small cell lung, with HOP-18 NSCLC, with DMS 114 small cell lung, with SNB-78 CNS and with DLD-1 colon was over 100 µM each time.

As for `O=C(O)C1C2C=CC(O2)C1C(=O)Nc1ccccc1` (configuration not stated), the TGI in the assay on MDA-N and in the assay with BT-549 breast was over 100 µM each time.

For the compound `CCCC(OCC)(OCC)OCC`, the TGI in the assay with XF 498 CNS, in the assay with DMS 273 small cell lung, in the assay with HOP-18 NSCLC, with DMS 114 small cell lung, in the assay on RXF-631 renal and in the assay with SNB-78 CNS was over 100 µM in each case. In the assay with DLD-1 colon, this compound displayed a TGI of over 100 µM.
